Measured values: patent US20080145375A1, “Vaccination” (Glaxo Group Limited, priority 2003, published 2008)

Legend:
[1] = tested on: C56BI/6 mice immunised with p7313OVAcyt; test: ELISPOT after primary PMID immunisation with p7313OVAcyt; assay type: in vivo, mouse; conditions: delivered singly with p7313 OVAcyt; Day 7 post primary immunisation; FIG. 8
Procedure: (§1) Plasmid DNA was precipitated onto 2 μm diameter gold beads using calcium chloride and spermidine. Equal amounts of plasmids encoding antigen (p7313OVAcyt, p7313RNG, pVAC7VNTRMuc1, pVAC7VNTRMuc1-PADRE or pVAC7VNTRMuc1-HepB) and p7313GMCSF plasmids were mixed and co-precipitated so that all beads were coated with a mixture of the 2 plasmids ensuring delivery of both plasmids to the same cell. Unless otherwise stated both the antigen and GMCSF were loaded at 0.5 ug/cartridge. Where lower doses of antigen were used the GMCSF loading remained at 0.5 ug and the total DNA on the cartridge was adjusted to 1 ug using p7313empty or pVACempty plasmids. Loaded beads were coated onto Tefzel tubing as described in, for example, Eisenbraum, et al. 1993. DNA Cell Biol. 12:791-797; Pertmer et al, 1996 J. Virol. 70:6119-6125). Particle bombardment was performed using the Accell gene delivery (PCT WO 95/19799; incorporated herein by reference). Female C56BI/6 mice were immunised with 2 administrations of plasmid at each time point as detailed in the results section, one on each side of the abdomen after shaving. […]
(§2) Cells were removed from the plates by washing once with water (with 1 minute soak to ensure lysis of cells) and three times with PBS. […] Spots were enumerated using an image analysis system devised by Brian Hayes, Asthma Cell Biology unit, GSK or the AID Elispot reader (Cadama Biomedical, UK). […]

[2] = tested on: C57/bl6 mice immunised with OVAcyt; test: In vivo cytotoxicity assay (SIINFEKL pulsed CSFE labelled splenocytes); set-up: species or system mouse; conditions: 3 mice per group; Day 7, 14, 21 and 42 post immunisation; FIG. 18
Procedure: The effect of GMCSF and Imiquimod on cytotoxic responses to p7313OVA after primary immunisation was also measured by in vivo cytotoxicity assays (FIG. 18). C57/bl6 mice were immunised with either OVAcyt or OVAcyt+GMCSF by PMID. At 24 hours post immunisation imiquimod was applied on the immunisation site. At Day 7, 14, 21 and 42 post immunisation mice were injected i.v. with CSFE labelled splenocytes consisting of [sequence] peptide pulsed and unpulsed in equal numbers. After 2 hours the blood was analysed by flow cytometry and the ratio of pulsed to unpulsed cells remaining was calculated to give a numerical value of cytotoxicity.

RIP OVAlo mice = test: Breaking tolerance in RIP OVAlo mice; assay type: in vivo, mouse; conditions: four immunisations at 3 weeks intervals; SIINFEKL restimulation
Description: RIP OVAlo mice were used to test the potential for tolerance breaking of the GMCSF+Imiquimod combination (FIG. 20). RIP OVAlo mice express ovalbumin (OVA) on the insulin producing beta cells of the pancreas and are therefore tolerant to this molecule. Disruption of this tolerance results in autoimmune destruction of the beta cells leading to diabetes which can be easily monitored by measurement of glycosuria and blood glucose level. RIPova lo and C57/BL6 mice (wt control group) received four immunisations with empty vector or OVAcyt (using PMID), ±GM-CSF (using PMID), and ±Imiquimod. Immunisations were given at 3 weeks intervals. Imiquimod was applied topically on the site of immunisation 24 h after PMID. 7 Days after the last immunisation splenocytes and serum samples were taken. […] The functional test for tolerance breaking in this model is development of diabetes. This is measured by urine glucose levels.

[3] = tested on: mice immunised with p731-RNG (GW825780X); test: IFNγ Elispot after PMID immunisation with p731-RNG, imiquimod at 0 h or 24 h; assay type: in vivo, mouse; conditions: application 24 h post immunisation; 2×0.5 ug p731-RNG by PMID; spleens day 14; GAG CD8 peptide AMQMLKETI; FIG. 5
Procedure: as §1, with “reference).” for “reference). Female C56BI/6 mice were immunised with 2 administrations of plasmid at each time point as detailed in the results section, one on each side of the abdomen after shaving.”
as §2
Spleens were harvested at day 14 post immunisation and the cellular responses analysed by IFNγ Elispot following stimulation with a GAG balb/c CD8 9mer peptide: AMQMLKETI.

[4] = tested on: mice immunised with pVAC7VNTR muc1; test: Elispot of Muc1 CD4 responses after immunisation with pVAC7VNTR muc1; assay type: in vivo, mouse; conditions: immunised days 0 and 21; day 7 post boost; compared to pVAC 7VNTRMuc1 alone; FIG. 12
Procedure: For OVA assays peptide SIINFEKL, a dominant CD8 peptide of OVA, was used in assays at a final concentration of 50 nM to measure CD8 responses and peptide […] was used at a final concentration of 10 μM to measure CD4 responses. For ICS assays Ovalbumin protein was also used to measure CD4 responses at 1 mg/ml. For ELISPOT to detect responses to p7313RNG peptide the CD8 peptide AMQMLKETI was used for stimulation. For detecting responses to Muc1, CD4 peptides […] and […] were used at 10 uM, and CD8 peptide SAPDNRPAL was used at 10 nM. The 9-mer peptides used to follow CD8 responses to Gag and RT in mice were […] (Gag CD8) and YYPDSKDLI (RT CD8) respectively, and CD4 responses to Gag and RT were followed using […] (Gag CD4) and […] (RT CD4) respectively. Peptide […] (Nef 218) was also tested. These peptides were tested at a final concentration of 10 μM. The peptides were obtained from Genemed Synthesis, South San Francisco.
Experiments were carried out to determine the effect of GMCSF and Imiquimod treatment on responses to pVAC7VNTR Muc1. Mice were immunised at days 0 and 21 with pVAC7VNTR muc1. This was delivered alone, co-delivered with p7313GMCSF, or with p7313GMCSF and Imiquimod application at 24 hours post immunisation. Spleens were harvested at day 7 post boost and analysed by Elispot following overnight stimulation with Muc1 CD4 peptides.

[5] = tested on: TLRs 1-9 mRNA in monocyte derived DC; test: Taqman analysis of TLR expression on IFNγ treated DC; assay type: cell-based, human; conditions: DC treated with IFNγ for 24 hours; 3 healthy donors; FIG. 6
Procedure: Monocytes were isolated from the PBMC of 3 healthy donors and cultured with IL-4 & GM-CSF for 7 days to induce differentiation to immature DC. The DC were then treated with IFNγ for 24 hours. mRNA expression of TLRs 1-9 was then measured by Taqman. In contrast to published reports we have shown that low levels of TLR7 are constitutively expressed on monocyte derived DC. […] The increase in TLR7 expression at 24 hours post stimulation in vitro provides an explanation for the results in FIG. 5 showing the good effect of Imiquimod at 24 hours post immunisation.

In the case of `CC(C)Cn1cnc2c(N)nc3ccccc3c21` [Imiquimod, imiquimod], the “adjuvant effect in Elispot assays” value [1] is reported as “adjuvant effects”, the in vivo cytotoxicity [2] is reported as “clear benefit over OVA alone” and the “CD8 responses (IFNγ and IL2 production in CD8+ T cells)” value (RIP OVAlo mice) is reported as “there are responses”. For the same compound, the “adjuvant effect on cellular responses, IFNγ Elispot” value [3] was “good adjuvant effect” and the “Muc1 CD4 responses (Elispot)” value [4] was “improved CD4 responses”.

For GMCSF, the “adjuvant effect in Elispot assays” value [1] was “adjuvant effects”, the “CD8 responses (IFNγ and IL2 production in CD8+ T cells)” value (RIP OVAlo mice) was “there are responses” and the “Muc1 CD4 responses (Elispot)” value [4] was “improved CD4 responses”.

For “IFNγ: interferon-gamma used to treat monocyte derived DC for 24 hours”, the “mRNA expression of TLR2” value [5] was “upregulated but to a lesser extent” and the “mRNA expression of TLR7 and TLR8” value [5] was “expression of TLR8 and increased levels of expression of TLR7 were found in all 3 donors”.
